# Measurements as given in patent US20070043008A1, “Condensed Bicyclo[3.1.0] Hex-4-EN Derivatives Useful as Antibacterial Agents” (priority 2003, published 2007).
# Read-outs that look alike come from different tables or passages of the source.
# What was measured:
# Type in all cases: cell-based
# [1] = system: Acinetobacter spp.; test: MIC/MBC broth dilution, Acinetobacter spp. patient isolates
# Description: (§1) The Minimal inhibitory concentration (MIC) and the Minimal bactericidal concentration (MBC) have been tested against various bacteria including patient isolates and antibiotic resistant strains such as S. aureus ATCC 25923, E. coli ATCC 25922, P. aeruginosa ATCC 27853.
# (§2) The bacteria were streaked on a nutrient agar plate to obtain a freshly isolated colony subsequently incubated overnight at 37° C. 4-5 isolated colonies were added into Mueller Hinton broth (MHB) solution, incubated for 4 hrs at 37° C. The turbidity was adjusted to the McFarland tube and the solution was diluted with MHB to 1:200.
# (§3) The test solution was diluted with dimethyl sulfoxide (DMSO) and MHB in the ratio of 1:4 to get a final concentration of 512 μg/ml. 50 μl of MHB were added to each of twelve wells except the first well. Dilutions were made, mixed and the solutions were then incubated overnight at 37° C.
# (§4) In order to determine the MBC, a loopful of each clear well was streaked onto a nutrient containing agar plate, which was subsequently incubated overnight at 37° C. The MBC was then determined as the lowest concentration which has shown no visible colony for each chemical.
# [2] = system: Escherichia coli; test: MIC/MBC broth dilution, Escherichia coli patient isolates
# Description: as §1, §2, §3, §4
# [3] = system: Enterobacter spp.; test: MIC/MBC broth dilution, Enterobacter spp. patient isolates
# Description: as §1, §2, §3, §4
# [4] = system: Klebsiella pneumoniae; test: MIC/MBC broth dilution, Klebsiella pneumoniae patient isolates
# Description: as §1, §2, §3, §4
# [5] = system: Pseudomonas aeruginosa; test: MIC/MBC broth dilution, Pseudomonas aeruginosa patient isolates
# Description: as §1, §2, §3, §4
# [6] = system: Staphylococcus aureus; test: MIC/MBC broth dilution, Staphylococcus aureus patient isolates
# Description: as §1, §2, §3, §4
# [7] = system: E. coli ATCC 25922; test: MIC/MBC broth dilution, E. coli ATCC 25922; conditions: Escherichia coli, ATCC25922; E. coli ATCC 25922, resistant strain (footnote 3)
# Description: as §1, §2, §3, §4
# [8] = system: P. aeruginosa ATCC 27853; test: MIC/MBC broth dilution, P. aeruginosa ATCC 27853; conditions: Pseudomonas aeruginosa, ATCC27853; P. aeruginosa ATCC 27853, resistant strain (footnote 3)
# Description: as §1, §2, §3, §4
# [9] = system: S. aureus ATCC 25923; test: MIC/MBC broth dilution, S. aureus ATCC 25923; conditions: Staphylococcus aureus, ATCC25923; S. aureus ATCC 25923, resistant strain (footnote 3)
# Description: as §1, §2, §3, §4
# [10] = system: various bacteria including patient isolates and antibiotic resistant strains; test: Antibacterial evaluation across all bacteria tested (summary of MIC/MBC)
# Description: as §1, §2
# The test solution was diluted with dimethyl sulfoxide (DMSO) and MHB in the ratio of 1:4 to get a final concentration of 512 μg/ml. 50 μl of MHB were added to each of twelve wells except the first well. […]
# as §4
# The first step in the evaluation was to determine the zone of inhibition on agar plates comparing the Example compounds with ampicillin and chloramphenicol as standards. Following this initial screening, the MIC/MBC was determined as previously described and the results are outlined in Table 1 for selected examples.
# [11] = Enterobacter, patient isolate En1
# [12] = Acinetobacter, patient isolates, isolate code not given (one value per isolate), read-out: MIC
# [13] = patient isolates, isolate code not given (one value per isolate)
# [14] = Enterobacter, patient isolates, isolate code not given (one value per isolate)
smiles,measurement,setting,value
"CN1C2=C(Cl)C(=O)OC21 (stereo not drawn) [Example 1, 4-chloro-6-methyl-2-oxa-6-azabicyclo[3.1.0]hex-4-en-3-one]",MBC,"[1]; Acinetobacter, patient isolate A1, read-out: MBC",16 µg/mL
same,MIC,"[1]; Acinetobacter, patient isolate A1, read-out: MIC",8 µg/mL
same,MBC,"[1]; Acinetobacter, patient isolate A2, read-out: MBC",64 µg/mL
same,MIC,"[1]; Acinetobacter, patient isolate A2, read-out: MIC",64 µg/mL
same,MBC,"[1]; Acinetobacter, patient isolate A3, read-out: MBC",32 µg/mL
same,MIC,"[1]; Acinetobacter, patient isolate A3, read-out: MIC",16 µg/mL
same,MBC,"[1]; Acinetobacter, patient isolate A4, read-out: MBC",64 µg/mL
same,MIC,"[1]; Acinetobacter, patient isolate A4, read-out: MIC",64 µg/mL
same,MBC,"[1]; Acinetobacter, patient isolate A5, read-out: MBC",32 µg/mL
same,MIC,"[1]; Acinetobacter, patient isolate A5, read-out: MIC",32 µg/mL
same,MBC,[2]; patient isolate E1,32 µg/mL
same,MIC,[2]; patient isolate E1,32 µg/mL
same,MBC,[2]; patient isolate E2,64 µg/mL
same,MIC,[2]; patient isolate E2,64 µg/mL
same,MBC,[2]; patient isolate E3,64 µg/mL
same,MIC,[2]; patient isolate E3,64 µg/mL
same,MBC,[2]; patient isolate E4,64 µg/mL
same,MIC,[2]; patient isolate E4,32 µg/mL
same,MBC,[2]; patient isolate E5,64 µg/mL
same,MIC,[2]; patient isolate E5,64 µg/mL
same,MBC,[3]; [11],64 µg/mL
same,MIC,[3]; [11],32 µg/mL
same,MBC,"[3]; Enterobacter, patient isolate En3, read-out: MBC",32 µg/mL
same,MIC,"[3]; Enterobacter, patient isolate En3, read-out: MIC",32 µg/mL
same,MBC,"[3]; Enterobacter, patient isolate En4, read-out: MBC",128 µg/mL
same,MIC,"[3]; Enterobacter, patient isolate En4, read-out: MIC",64 µg/mL
same,MBC,"[3]; Enterobacter, patient isolate En5, read-out: MBC",64 µg/mL
same,MIC,"[3]; Enterobacter, patient isolate En5, read-out: MIC",64 µg/mL
same,MBC,[4]; patient isolate K1,64 µg/mL
same,MIC,[4]; patient isolate K1,64 µg/mL
same,MBC,[4]; patient isolate K2,64 µg/mL
same,MIC,[4]; patient isolate K2,32 µg/mL
same,MBC,[4]; patient isolate K3,32 µg/mL
same,MIC,[4]; patient isolate K3,32 µg/mL
same,MBC,[4]; patient isolate K4,128 µg/mL
same,MIC,[4]; patient isolate K4,128 µg/mL
same,MBC,[4]; patient isolate K5,64 µg/mL
same,MIC,[4]; patient isolate K5,64 µg/mL
same,MBC,[5]; patient isolate P7,64 µg/mL
same,MIC,[5]; patient isolate P7,32 µg/mL
same,MBC,[5]; patient isolate P10,64 µg/mL
same,MIC,[5]; patient isolate P10,64 µg/mL
same,MBC,[5]; patient isolate P12,128 µg/mL
same,MIC,[5]; patient isolate P12,128 µg/mL
same,MBC,[5]; patient isolate P13,64 µg/mL
same,MIC,[5]; patient isolate P13,32 µg/mL
same,MBC,[5]; patient isolate P14,64 µg/mL
same,MIC,[5]; patient isolate P14,32 µg/mL
same,MBC,[5]; patient isolate P16,64 µg/mL
same,MIC,[5]; patient isolate P16,32 µg/mL
same,MBC,[6]; patient isolate S1,> 128 µg/mL
same,MIC,[6]; patient isolate S1,128 µg/mL
same,MBC,[6]; patient isolate S2,> 128 µg/mL
same,MIC,[6]; patient isolate S2,128 µg/mL
same,MBC,[6]; patient isolate S3,128 µg/mL
same,MIC,[6]; patient isolate S3,64 µg/mL
same,MBC,[6]; patient isolate S4,> 128 µg/mL
same,MIC,[6]; patient isolate S4,64 µg/mL
same,MBC,[7],32 µg/mL
same,MIC,[7],16 µg/mL
same,MBC,[8],32 µg/mL
same,MIC,[8],32 µg/mL
same,MBC,[9],64 µg/mL
same,MIC,[9],16 µg/mL
same,MIC for antibiotic resistant strains compared with corresponding non-resistant isolates,[10]; resistant ATCC strains vs patient isolates,lower MIC for the antibiotic resistant strains than the corresponding non-resistant isolates
"O=C1OC2NC2=C1Cl (stereo not drawn) [Example 3, 4-chloro-2-oxa-6-azabicyclo[3.1.0]hex-4-en-3-one]",MIC,[1]; [12],32 µg/mL
same,MBC,[2]; [13],128 µg/mL
same,MIC,[2]; [13],64 µg/mL
same,MBC,[3]; [14],64 µg/mL
same,MIC,[3]; [14],64 µg/mL
same,MBC,[4]; [13],64 µg/mL
same,MIC,[4]; [13],64 µg/mL
same,MBC,[5]; [13],128 µg/mL
same,MIC,[5]; [13],128 µg/mL
same,MBC,[6]; [13],> 128 µg/mL
same,MIC,[6]; [13],128 µg/mL
same,MBC,[7],128 µg/mL
same,MIC,[7],128 µg/mL
same,MBC,[8],128 µg/mL
same,MIC,[8],128 µg/mL
same,MBC,[9],> 128 µg/mL
same,MIC,[9],128 µg/mL
"O=C1OC2C(=C1Cl)N2Cc1ccccc1 (stereo not drawn) [Example 4, 4-chloro-6-benzyl-2-oxa-6-azabicyclo[3.1.0]hex-4-en-3-one]",MBC,"[1]; Acinetobacter, patient isolates, isolate code not given (one value per isolate), read-out: MBC",8 µg/mL
same,MIC,[1]; [12],4 µg/mL
same,MBC,[1]; [13],16 µg/mL
same,MIC,[1]; [13],8 µg/mL
same,MBC,[2]; [13],16 µg/mL
same,MIC,[2]; [13],16 µg/mL
same,MBC,[3]; [14],16 µg/mL
same,MIC,[3]; [14],8 µg/mL
same,MBC,[3]; [13],32 µg/mL
same,MIC,[3]; [13],16 µg/mL
same,MBC,[7],16 µg/mL
same,MIC,[7],8 µg/mL
same,MBC,[8],32 µg/mL
same,MIC,[8],16 µg/mL
same,MBC,[9],8 µg/mL
same,MIC,[9],4 µg/mL
same,broad spectrum antibacterial activity,[10]; summary of Table 1,good broad spectrum activity
